Measurements: patent publication US20260266848A1, “COMPOSITIONS AND METHODS FOR DIAGNOSING AND TREATING DYSTONIA” (Duke University, priority 2023, published 2026)

Test system: WT MEF EVs
Assay: Quantitative LC-MS/MS proteomics of EVs from ISRIB-treated WT MEF cultures
Format: cell-based, mouse

Compound: O=C(COc1ccc(Cl)cc1)NC1CCC(NC(=O)COc2ccc(Cl)cc2)CC1 (centres unmarked) [ISRIB, reference compound]
- Hnrnpc (HNRNPC) EV abundance Log2_FC (WT+ISRIB/WT, 50 nM, 24 h): 1.478
- Ipo9 (IPO9) EV abundance Cohen's d (WT+ISRIB/WT, 50 nM, 24 h): −0.4661
- Ipo9 (IPO9) EV abundance Log2_FC (WT+ISRIB/WT, 50 nM, 24 h): −0.5386
- Jam3 (JAM3) EV abundance Cohen's d (WT+ISRIB/WT, 50 nM, 24 h): −0.3267
- Jam3 (JAM3) EV abundance Log2_FC (WT+ISRIB/WT, 50 nM, 24 h): 0.373
- Lipg (LIPG) EV abundance Cohen's d (WT+ISRIB/WT, 50 nM, 24 h): 0.7395
- Lipg (LIPG) EV abundance Log2_FC (WT+ISRIB/WT, 50 nM, 24 h): −0.3639
- Lrrc59 (LRRC59) EV abundance Cohen's d (WT+ISRIB/WT, 50 nM, 24 h): −0.6884
- Lrrc59 (LRRC59) EV abundance Log2_FC (WT+ISRIB/WT, 50 nM, 24 h): 0.3431
- Mapk3 (MAPK3) EV abundance Cohen's d (WT+ISRIB/WT, 50 nM, 24 h): −0.8739
- Mapk3 (MAPK3) EV abundance Log2_FC (WT+ISRIB/WT, 50 nM, 24 h): −0.163
- Mars (MARS1) EV abundance Cohen's d (WT+ISRIB/WT, 50 nM, 24 h): 0.05955
- Mars (MARS1) EV abundance Log2_FC (WT+ISRIB/WT, 50 nM, 24 h): −0.3717
- Mrc2 (MRC2) EV abundance Cohen's d (WT+ISRIB/WT, 50 nM, 24 h): 0.2117
- Mrc2 (MRC2) EV abundance Log2_FC (WT+ISRIB/WT, 50 nM, 24 h): −0.2942
- Myh9 (MYH9) EV abundance Cohen's d (WT+ISRIB/WT, 50 nM, 24 h): −0.02365
- Myh9 (MYH9) EV abundance Log2_FC (WT+ISRIB/WT, 50 nM, 24 h): 0.05232
- Ndnf (NDNF) EV abundance Cohen's d (WT+ISRIB/WT, 50 nM, 24 h): 1.071
- Ndnf (NDNF) EV abundance Log2_FC (WT+ISRIB/WT, 50 nM, 24 h): −0.1375
- Pcmt1 (PCMT1) EV abundance Cohen's d (WT+ISRIB/WT, 50 nM, 24 h): −0.8553
- Pcmt1 (PCMT1) EV abundance Log2_FC (WT+ISRIB/WT, 50 nM, 24 h): −0.06624
- Pi4ka (PI4KA) EV abundance Cohen's d (WT+ISRIB/WT, 50 nM, 24 h): −0.4893
- Pi4ka (PI4KA) EV abundance Log2_FC (WT+ISRIB/WT, 50 nM, 24 h): 0.3826
- Pitpnb (PITPNB) EV abundance Cohen's d (WT+ISRIB/WT, 50 nM, 24 h): −1.114
- Pitpnb (PITPNB) EV abundance Log2_FC (WT+ISRIB/WT, 50 nM, 24 h): 1.461
- Prpsap2 (PRPSAP2) EV abundance Cohen's d (WT+ISRIB/WT, 50 nM, 24 h): 0.2158
- Prpsap2 (PRPSAP2) EV abundance Log2_FC (WT+ISRIB/WT, 50 nM, 24 h): −0.6725
- Psmc5 (PSMC5) EV abundance Cohen's d (WT+ISRIB/WT, 50 nM, 24 h): 0.4267
- Psmc5 (PSMC5) EV abundance Log2_FC (WT+ISRIB/WT, 50 nM, 24 h): −0.3622
- Psmd12 (PSMD12) EV abundance Cohen's d (WT+ISRIB/WT, 50 nM, 24 h): 0.00373
- Psmd12 (PSMD12) EV abundance Log2_FC (WT+ISRIB/WT, 50 nM, 24 h): −0.3805
- Psme4 (PSME4) EV abundance Cohen's d (WT+ISRIB/WT, 50 nM, 24 h): −0.8162
- Psme4 (PSME4) EV abundance Log2_FC (WT+ISRIB/WT, 50 nM, 24 h): −0.7974
- Ptma (PTMA) EV abundance Cohen's d (WT+ISRIB/WT, 50 nM, 24 h): 0.6355
- Ptma (PTMA) EV abundance Log2_FC (WT+ISRIB/WT, 50 nM, 24 h): 2.638
- Rap2b (RAP2B) EV abundance Cohen's d (WT+ISRIB/WT, 50 nM, 24 h): 0.3788
- Rap2b (RAP2B) EV abundance Log2_FC (WT+ISRIB/WT, 50 nM, 24 h): −0.1245
- Rbm3 (RBM3) EV abundance Cohen's d (WT+ISRIB/WT, 50 nM, 24 h): −0.3159
- Rbm3 (RBM3) EV abundance Log2_FC (WT+ISRIB/WT, 50 nM, 24 h): 0.2028
- Rhoa (RHOA) EV abundance Cohen's d (WT+ISRIB/WT, 50 nM, 24 h): −1.25
- Rhoa (RHOA) EV abundance Log2_FC (WT+ISRIB/WT, 50 nM, 24 h): −0.00598
- Rpl10 (RPL10) EV abundance Cohen's d (WT+ISRIB/WT, 50 nM, 24 h): −0.35
- Rpl10 (RPL10) EV abundance Log2_FC (WT+ISRIB/WT, 50 nM, 24 h): 0.00077
- Rpl13a (RPL13A) EV abundance Cohen's d (WT+ISRIB/WT, 50 nM, 24 h): 0.3123
- Rpl13a (RPL13A) EV abundance Log2_FC (WT+ISRIB/WT, 50 nM, 24 h): 0.04217
- Rps13 (RPS13) EV abundance Cohen's d (WT+ISRIB/WT, 50 nM, 24 h): −0.2269
- Rps13 (RPS13) EV abundance Log2_FC (WT+ISRIB/WT, 50 nM, 24 h): 0.2809
- Sec31a (SEC31A) EV abundance Cohen's d (WT+ISRIB/WT, 50 nM, 24 h): −0.3764
- Sec31a (SEC31A) EV abundance Log2_FC (WT+ISRIB/WT, 50 nM, 24 h): −0.2838
- Slc2a1 (SLC2A1) EV abundance Cohen's d (WT+ISRIB/WT, 50 nM, 24 h): −0.34
- Slc2a1 (SLC2A1) EV abundance Log2_FC (WT+ISRIB/WT, 50 nM, 24 h): 0.08012
- Stom (STOM) EV abundance Cohen's d (WT+ISRIB/WT, 50 nM, 24 h): −0.7279
- Stom (STOM) EV abundance Log2_FC (WT+ISRIB/WT, 50 nM, 24 h): 0.1135
- Tardbp (TARDBP) EV abundance Cohen's d (WT+ISRIB/WT, 50 nM, 24 h): −0.3087
- Tardbp (TARDBP) EV abundance Log2_FC (WT+ISRIB/WT, 50 nM, 24 h): −0.06285
- Tgfb2 (TGFB2) EV abundance Cohen's d (WT+ISRIB/WT, 50 nM, 24 h): 0.6984
- Tgfb2 (TGFB2) EV abundance Log2_FC (WT+ISRIB/WT, 50 nM, 24 h): −0.319
- Tln1 (TLN1) EV abundance Cohen's d (WT+ISRIB/WT, 50 nM, 24 h): −0.39
- Tln1 (TLN1) EV abundance Log2_FC (WT+ISRIB/WT, 50 nM, 24 h): −0.05074
- Tln2 (TLN2) EV abundance Cohen's d (WT+ISRIB/WT, 50 nM, 24 h): −0.7484
- Tln2 (TLN2) EV abundance Log2_FC (WT+ISRIB/WT, 50 nM, 24 h): −0.02524
- Tubb1 (TUBB1) EV abundance Cohen's d (WT+ISRIB/WT, 50 nM, 24 h): 0.3005
- Tubb1 (TUBB1) EV abundance Log2_FC (WT+ISRIB/WT, 50 nM, 24 h): 0.1945
- Usp7 (USP7) EV abundance Cohen's d (WT+ISRIB/WT, 50 nM, 24 h): −0.3328
- Usp7 (USP7) EV abundance Log2_FC (WT+ISRIB/WT, 50 nM, 24 h): −0.8347
- Wdr26 (WDR26) EV abundance Cohen's d (WT+ISRIB/WT, 50 nM, 24 h): −0.2688
- Wdr26 (WDR26) EV abundance Log2_FC (WT+ISRIB/WT, 50 nM, 24 h): −0.05756
- Zyx (ZYX) EV abundance Cohen's d (WT+ISRIB/WT, 50 nM, 24 h): −0.131
- Zyx (ZYX) EV abundance Log2_FC (WT+ISRIB/WT, 50 nM, 24 h): 0.1801
- Pearson r between DYT genotype effects and ISRIB effects (entire proteome): 0.37
- Pearson r between DYT genotype effects and ISRIB effects (genotype-disrupted proteins): 0.40
